Test results reported in ChEMBL document CHEMBL4373744, “Modifying the lipophilic part of phenylthiazole antibiotics to control their drug-likeness” (Eur J Med Chem, 2020).
Values after ≈ are worked out from the molar mass of the structure shown. Active and inactive are the calls of the source. The calls are words filed in the database; no cut-off is given here.

Tests used:
Staphylococcus aureus [1] = test: Antimicrobial activity against methicillin-resistant Staphylococcus aureus USA400 infected in mouse J774 cells assessed as reduction in […] bacterial count at 2 times MIC incubated for 24 hrs relative to control; type: functional; design: scale not given: the % may be the effect or the level left
Streptococcus pneumoniae [2] = test: Antimicrobial activity against methicillin-resistant Streptococcus pneumoniae ATCC 700677 by broth liquid microdilution method; type: functional
Staphylococcus aureus [3] = test: microbe, parasite or virus in culture; conditions: ATCC 6538
Description: Antimicrobial activity against methicillin-sensitive Staphylococcus aureus ATCC 6538 by broth liquid microdilution method

Staphylococcus aureus [4] = test: Antimicrobial activity against vancomycin-resistant Staphylococcus aureus 12 by broth liquid microdilution method; type: functional
Staphylococcus aureus [5] = test: microbe, parasite or virus in culture; conditions: NRS 385
Description: Antimicrobial activity against methicillin-resistant Staphylococcus aureus NRS 385 by broth liquid microdilution method

Staphylococcus aureus [6] = test: microbe, parasite or virus in culture; conditions: NRS 107
Description: Antimicrobial activity against methicillin-sensitive Staphylococcus aureus NRS 107 by broth liquid microdilution method

[7] = test system: Staphylococcus epidermidis; test: Antimicrobial activity against methicillin-resistant Staphylococcus epidermidis NRS101 by broth liquid microdilution method; type: functional
Staphylococcus aureus [8] = test: microbe, parasite or virus in culture; conditions: NRS 386
Description: Antimicrobial activity against methicillin-resistant Staphylococcus aureus NRS 386 by broth liquid microdilution method

Staphylococcus aureus [9] = test: Antibiofilm activity against methicillin-resistant Staphylococcus aureus USA300 incubated for 24 hrs by crystal violet staining based assay; type: functional, organism-based
Staphylococcus aureus [10] = test: microbe, parasite or virus in culture; conditions: NRS384
Description: Antimicrobial activity against methicillin-resistant Staphylococcus aureus NRS384 by broth liquid microdilution method

Streptococcus pneumoniae [11] = test: Antimicrobial activity against cephalosporin-resistant Streptococcus pneumoniae ATCC 51916 by broth liquid microdilution method; type: functional
Staphylococcus aureus [12] = test: microbe, parasite or virus in culture; conditions: NRS119
Description: Antimicrobial activity against methicillin-resistant Staphylococcus aureus NRS119 by broth liquid microdilution method

Enterococcus faecium = test: Antimicrobial activity against vancomycin-resistant Enterococcus faecium ATCC 700221 by broth liquid microdilution method; type: functional
Staphylococcus aureus [13] = test: Antibiofilm activity against methicillin-resistant Staphylococcus aureus USA300 at 2 times MIC incubated for 24 hrs by crystal violet staining based assay relative to control; type: functional
J774 = test: Cytotoxicity against mouse J774 cells assessed as reduction in cell viability at 4 to 8 ug/ml incubated for 24 hrs by MTS assay; type: cell-based; conditions: j774, 24 h
Staphylococcus aureus [14] = test: Antimicrobial activity against methicillin-resistant Staphylococcus aureus USA400 infected in mouse J774 cells assessed as reduction in […] bacterial count at 4 times MIC incubated for 24 hrs relative to control; type: functional; design: scale not given: the % may be the effect or the level left
Staphylococcus aureus [15] = test: microbe, parasite or virus in culture; conditions: NRS123
Description: Antimicrobial activity against methicillin-resistant Staphylococcus aureus NRS123 by broth liquid microdilution method

Enterococcus faecalis = test: microbe, parasite or virus in culture; conditions: ATCC 51299
Staphylococcus aureus [16] = test: Bactericidal activity against methicillin-resistant Staphylococcus aureus USA400 assessed as reduction in number of colony forming units at 5 times MIC incubated for 10 hrs by aliquots transfer to tryptic soy agar and grown for 18 to 20 hrs by Time-kill assay relative to control; type: functional; design: scale not given: the % may be the effect or the level left
Staphylococcus aureus [17] = test: Antibiofilm activity against methicillin-resistant Staphylococcus aureus USA300 at 4 times MIC incubated for 24 hrs by crystal violet staining based assay relative to control; type: functional
Listeria monocytogenes = test: Antimicrobial activity against Listeria monocytogenes ATCC 19111 by broth liquid microdilution method; type: functional
Staphylococcus aureus [18] = test: Antimicrobial activity against vancomycin-resistant Staphylococcus aureus 10 by broth liquid microdilution method; type: functional
Escherichia coli [19] = test: Antimicrobial activity against Escherichia coli JW55031 harboring deltatolC mutant by broth liquid microdilution method; type: functional
Staphylococcus aureus [20] = test: Bactericidal activity against methicillin-resistant Staphylococcus aureus USA400 assessed as reduction in number of colony forming units at 5 times MIC incubated for 12 hrs by aliquots transfer to tryptic soy agar and grown for 18 to 20 hrs by Time-kill assay relative to control; type: functional; design: scale not given: the % may be the effect or the level left
[21] = Volume of distribution in Sprague-Dawley rat at 50 mg/kg, po via gavage administered as a single dose measured upto 24 hrs by LC/MS/MS analysis; type: ADME, organism-based; conditions: in vivo
Escherichia coli [22] = test: Antimicrobial activity against Escherichia coli BW25113 by broth liquid microdilution method; type: functional
[23] = Half life in Sprague-Dawley rat at 50 mg/kg, po via gavage administered as a single dose measured upto 24 hrs by LC/MS/MS analysis; type: ADME, organism-based; conditions: in vivo
[24] = AUC in Sprague-Dawley rat at 50 mg/kg, po via gavage administered as a single dose measured upto 24 hrs by LC/MS/MS analysis; type: ADME, organism-based; design: time < 24 hr, dose 50 mg/kg, route oral; conditions: in vivo
[25] = Aqueous solubility of compound in pH 6.8 phosphate buffer; type: physicochemical
[26] = Tmax in Sprague-Dawley rat at 50 mg/kg, po via gavage administered as a single dose measured upto 24 hrs by LC/MS/MS analysis; type: ADME, organism-based; conditions: in vivo
Staphylococcus aureus [27] = test: Bactericidal activity against methicillin-resistant Staphylococcus aureus USA400 assessed as 3 log reduction in number of colony forming units at 5 times MIC incubated for 10 hrs by aliquots transfer to tryptic soy agar and grown for 18 to 20 hrs by Time-kill assay; type: functional, organism-based
[28] = Clearance in Sprague-Dawley rat at 50 mg/kg, po via gavage administered as a single dose measured upto 24 hrs by LC/MS/MS analysis; type: ADME, organism-based; conditions: in vivo
[29] = Cmax in Sprague-Dawley rat at 50 mg/kg, po via gavage administered as a single dose measured upto 24 hrs by LC/MS/MS analysis; type: ADME, organism-based; design: dose 50 mg/kg, route oral; conditions: in vivo
Staphylococcus aureus [30] = test: Antimicrobial activity against methicillin-resistant Staphylococcus aureus USA400 infected in mouse J774 cells assessed as reduction in […] bacterial count at 2 to 4 times MIC incubated for 24 hrs; type: functional, organism-based
Staphylococcus aureus [31] = test: Bactericidal activity against methicillin-resistant Staphylococcus aureus USA400 assessed as 3 log reduction in number of colony forming units at 5 times MIC incubated for 12 hrs by aliquots transfer to tryptic soy agar and grown for 18 to 20 hrs by Time-kill assay; type: functional, organism-based

C/C(=N\NC(=N)N)c1sc(-c2ccc(C#CCCN3CC(O)C3)cc2)nc1C
Activity (Staphylococcus aureus [1]): 55% | MBC (Streptococcus pneumoniae [2]): 16 µg/mL (≈ 40.4 µM) | MIC (Streptococcus pneumoniae [2]): 4 µg/mL (≈ 10.1 µM) | MBC (Staphylococcus aureus [3]): 4 µg/mL (≈ 10.1 µM) | MIC (Staphylococcus aureus [3]): 4 µg/mL (≈ 10.1 µM) | MBC (Staphylococcus aureus [4]): 8 µg/mL (≈ 20.2 µM) | MIC (Staphylococcus aureus [4]): 4 µg/mL (≈ 10.1 µM) | MBC (Staphylococcus aureus [5]): 4 µg/mL (≈ 10.1 µM) | MIC (Staphylococcus aureus [5]): 4 µg/mL (≈ 10.1 µM) | MBC (Staphylococcus aureus [6]): 4 µg/mL (≈ 10.1 µM) | MIC (Staphylococcus aureus [6]): 4 µg/mL (≈ 10.1 µM) | MBC [7]: 16 µg/mL (≈ 40.4 µM) | MIC [7]: 2 µg/mL (≈ 5.04 µM) | MBC (Staphylococcus aureus [8]): 8 µg/mL (≈ 20.2 µM) | MIC (Staphylococcus aureus [8]): 4 µg/mL (≈ 10.1 µM) | Activity (Staphylococcus aureus [9]): Dose-dependent effect | MBC (Staphylococcus aureus [10]): 4 µg/mL (≈ 10.1 µM) | MIC (Staphylococcus aureus [10]): 4 µg/mL (≈ 10.1 µM) | MBC (Streptococcus pneumoniae [11]): 16 µg/mL (≈ 40.4 µM) | MIC (Streptococcus pneumoniae [11]): 4 µg/mL (≈ 10.1 µM) | MBC (Staphylococcus aureus [12]): 8 µg/mL (≈ 20.2 µM) | MIC (Staphylococcus aureus [12]): 4 µg/mL (≈ 10.1 µM) | MBC (Enterococcus faecium): 16 µg/mL (≈ 40.4 µM) | MIC (Enterococcus faecium): 4 µg/mL (≈ 10.1 µM) | Activity (Staphylococcus aureus [13]): 31% | Activity (J774): Non-Toxic | Activity (Staphylococcus aureus [14]): 99% | MBC (Staphylococcus aureus [15]): 8 µg/mL (≈ 20.2 µM) | MIC (Staphylococcus aureus [15]): 4 µg/mL (≈ 10.1 µM) | MBC (Enterococcus faecalis): 16 µg/mL (≈ 40.4 µM) | MIC (Enterococcus faecalis): 8 µg/mL (≈ 20.2 µM) | Activity (Staphylococcus aureus [16]): 100% | Activity (Staphylococcus aureus [17]): 72% | MBC (Listeria monocytogenes): 32 µg/mL (≈ 80.7 µM) | MIC (Listeria monocytogenes): 4 µg/mL (≈ 10.1 µM) | MBC (Staphylococcus aureus [18]): 8 µg/mL (≈ 20.2 µM) | MIC (Staphylococcus aureus [18]): 4 µg/mL (≈ 10.1 µM)

C/C(=N\NC(=N)N)c1sc(-c2ccc(C#CCCN3CCC3)cc2)nc1C
Activity (Staphylococcus aureus [1]): 98% | MIC (Escherichia coli [19]): 32 µg/mL (≈ 84.1 µM) | Activity (Staphylococcus aureus [20]): 100% | MBC (Streptococcus pneumoniae [2]): 8 µg/mL (≈ 21 µM) | MIC (Streptococcus pneumoniae [2]): 2 µg/mL (≈ 5.26 µM) | MBC (Staphylococcus aureus [3]): 8 µg/mL (≈ 21 µM) | MIC (Staphylococcus aureus [3]): 2 µg/mL (≈ 5.26 µM) | MBC (Staphylococcus aureus [4]): 16 µg/mL (≈ 42 µM) | MIC (Staphylococcus aureus [4]): 4 µg/mL (≈ 10.5 µM) | MBC (Staphylococcus aureus [5]): 4 µg/mL (≈ 10.5 µM) | MIC (Staphylococcus aureus [5]): 4 µg/mL (≈ 10.5 µM) | Vd [21]: 1.29 L | MBC (Staphylococcus aureus [6]): 8 µg/mL (≈ 21 µM) | MIC (Staphylococcus aureus [6]): 2 µg/mL (≈ 5.26 µM) | MBC [7]: 4 µg/mL (≈ 10.5 µM) | MIC [7]: 1 µg/mL (≈ 2.63 µM) | MBC (Staphylococcus aureus [8]): 8 µg/mL (≈ 21 µM) | MIC (Staphylococcus aureus [8]): 2 µg/mL (≈ 5.26 µM) | MIC (Escherichia coli [22]): > 64 µg/mL | Activity (Staphylococcus aureus [9]): Dose-dependent effect | MBC (Staphylococcus aureus [10]): 4 µg/mL (≈ 10.5 µM) | MIC (Staphylococcus aureus [10]): 2 µg/mL (≈ 5.26 µM) | MBC (Streptococcus pneumoniae [11]): 8 µg/mL (≈ 21 µM) | MIC (Streptococcus pneumoniae [11]): 2 µg/mL (≈ 5.26 µM) | MBC (Staphylococcus aureus [12]): 8 µg/mL (≈ 21 µM) | MIC (Staphylococcus aureus [12]): 2 µg/mL (≈ 5.26 µM) | MBC (Enterococcus faecium): 8 µg/mL (≈ 21 µM) | MIC (Enterococcus faecium): 2 µg/mL (≈ 5.26 µM) | Activity (Staphylococcus aureus [13]): 31% | Activity (J774): Non-Toxic | Activity (Staphylococcus aureus [14]): 99.7% | half-life [23]: 2.9 h | MBC (Staphylococcus aureus [15]): 4 µg/mL (≈ 10.5 µM) | MIC (Staphylococcus aureus [15]): 2 µg/mL (≈ 5.26 µM) | MBC (Enterococcus faecalis): 16 µg/mL (≈ 42 µM) | MIC (Enterococcus faecalis): 4 µg/mL (≈ 10.5 µM) | AUC at 24 h [24]: 162 µg·h/mL | solubility [25]: 500 µM (≈ 190 µg/mL) | Tmax [26]: 1 h | Activity (Staphylococcus aureus [17]): 41% | Activity (Staphylococcus aureus [27]): Active | CL/F [28]: 5.17 mL/min | MBC (Listeria monocytogenes): 8 µg/mL (≈ 21 µM) | MIC (Listeria monocytogenes): 4 µg/mL (≈ 10.5 µM) | Cmax [29]: 15600 ng/mL | MBC (Staphylococcus aureus [18]): 8 µg/mL (≈ 21 µM) | MIC (Staphylococcus aureus [18]): 2 µg/mL (≈ 5.26 µM)

CN[C@H](CC(C)C)C(=O)N[C@H]1C(=O)N[C@@H](CC(N)=O)C(=O)N[C@H]2C(=O)N[C@H]3C(=O)N[C@H](C(=O)N[C@H](C(=O)O)c4cc(O)cc(O)c4-c4cc3ccc4O)[C@H](O)c3ccc(c(Cl)c3)Oc3cc2cc(c3O[C@@H]2O[C@H](CO)[C@@H](O)[C@H](O)[C@H]2O[C@H]2C[C@](C)(N)[C@H](O)[C@H](C)O2)Oc2ccc(cc2Cl)[C@H]1O [VANCOMYCIN]
MIC (Escherichia coli [19]): ≤ 0.5 µg/mL | Activity (Staphylococcus aureus [30]): inactive | Activity (Staphylococcus aureus [31]): Active | MIC (Streptococcus pneumoniae [2]): 2 µg/mL (≈ 1.38 µM) | MBC (Staphylococcus aureus [3]): 2 µg/mL (≈ 1.38 µM) | MBC (Staphylococcus aureus [4]): 64 µg/mL (≈ 44.2 µM) | MIC (Staphylococcus aureus [4]): 64 µg/mL (≈ 44.2 µM) | MBC (Staphylococcus aureus [5]): 1 µg/mL (≈ 0.69 µM) | MBC (Staphylococcus aureus [6]): 2 µg/mL (≈ 1.38 µM) | MBC [7]: 2 µg/mL (≈ 1.38 µM) | MBC (Staphylococcus aureus [8]): 1 µg/mL (≈ 0.69 µM) | MIC (Escherichia coli [22]): ≤ 0.5 µg/mL | MBC (Staphylococcus aureus [10]): 1 µg/mL (≈ 0.69 µM) | MIC (Streptococcus pneumoniae [11]): 1 µg/mL (≈ 0.69 µM) | MBC (Staphylococcus aureus [12]): 2 µg/mL (≈ 1.38 µM) | MBC (Enterococcus faecium): > 64 µg/mL | MIC (Enterococcus faecium): > 64 µg/mL | Activity (Staphylococcus aureus [13]): 9% | MBC (Staphylococcus aureus [15]): 1 µg/mL (≈ 0.69 µM) | MBC (Enterococcus faecalis): 64 µg/mL (≈ 44.2 µM) | MIC (Enterococcus faecalis): 32 µg/mL (≈ 22.1 µM) | Activity (Staphylococcus aureus [17]): 16% | MIC (Listeria monocytogenes): 1 µg/mL (≈ 0.69 µM) | MBC (Staphylococcus aureus [18]): > 64 µg/mL | MIC (Staphylococcus aureus [18]): 64 µg/mL (≈ 44.2 µM)
